These antisense oligonucleotides have a phosphorothioate backbone; sugars and methylation of C are not fully specified. Some results are limits rather than exact numbers.
Note: test concentration or dose not given here.

One data set has as its target INPPL1. The note with it: ASO.
In turn, AAGTAGTTTTGGTTCCTC came in with a remaining target (mRNA or protein) (fraction of control) of at least 1.
With ACAGACCAGGAGACAGTG, the remaining target (mRNA or protein) (fraction of control) came to 0.94.
Same read-out and setting: under ACGGTGGGATAGGAAGGT stands at least 1; under AGACCCACACAGAACAGT, at least 1; under AGAGCAGGGCAGCACAGA, at least 1.
Still for that read-out and setting: under AGGTGGGTGGGAAGGAGA stands 0.98.
On the same count and under the same terms, under ATGTTGTCACTGCTCTGG stands 0.92; under CACCCCAATAAATAGGCA, at least 1; under CAGGCGGTAGTTGAGGTC, at least 1.
CAGTGGTGGAGGTGGAAA: the remaining target (mRNA or protein) (fraction of control) is at least 1.
Same read-out and setting: the value for CATGGCTGATACGGTTCT was 0.98; that for CCAACCTCAAATGTCCCA was at least 1.
Same read-out and setting: the value for CCATAGGATTCATAGCCA was at least 1; that for CCATAGTCCGAGGGCAGT was 0.88.
Same read-out and setting: the value for CCTCATAACTTTTCAACC was at least 1; that for CCTTGTCCACCTCACTGT was 0.81; that for CGCTCTCGCTGTCTCGGA was at least 1.
Sequence CGTTGGTGGCGGTTTCTC displayed a remaining target (mRNA or protein) (fraction of control) of 0.93.
As to CTCTGGTTCTTCAAATAA, the remaining target (mRNA or protein) (fraction of control) is at least 1.
Same read-out and setting: under GACAGCACCAGAGTAACC stands 0.69.
The sequence GACATCACGCCGCAACCC returned a remaining target (mRNA or protein) (fraction of control) of 0.39.
In turn, GAGATACTGCCCTGACCC showed a remaining target (mRNA or protein) (fraction of control) of at least 1.
With GCACCAGCCGCCCACCCT, the remaining target (mRNA or protein) (fraction of control) was 0.3.
On the same count and under the same terms, the value for GCACCCCAGCCTCCTCCA was 0.79.
GGAGATGAACTGGGAGGT: the remaining target (mRNA or protein) (fraction of control) is 0.48.
The same measure, in the same setting: the value for GGATGCGGTCGTGCGTGA was 0.86; that for GGTCCTTCTCCTTCTCAA was 0.52; that for GTGCCTATGAAGACTGAG was 0.4.
On to GTGGCAGATGGGACAGGG, for which the remaining target (mRNA or protein) (fraction of control) was at least 1.
Still for that read-out and setting: under TCCAAGTCCTCCTCGGTG stands at least 1; under TCCAGGCAGGTAGAGTAG, at least 1; under TCCCCACTGCCCACTTCC, at least 1.
TCCCTCCCCAGACCCACA: the remaining target (mRNA or protein) (fraction of control) is at least 1.
The sequence TCCGTCCTGAGCCTAAAA yielded a remaining target (mRNA or protein) (fraction of control) of 0.7.
On the same count and under the same terms, under TCTGTGACTTCCCAATCT stands 0.93; under TGCCCCACCCCAACCAAC, at least 1; under TGCGGCTGGCTGTCTTCA, 0.85.
The sequence TGCTCCTGCCTCATCCTT registered a remaining target (mRNA or protein) (fraction of control) of 0.54.
TGTGCCTCCAGACTCCTC had a remaining target (mRNA or protein) (fraction of control) of 0.59.
In turn, TTGCGGCTCCCTGACCTG yielded a remaining target (mRNA or protein) (fraction of control) of at least 1.

In another data set the target is BIRC2. The note with it: ASO.
Turning to AAAAGCTAAGTTCACACA, the remaining target (mRNA or protein) (fraction of control) is at least 1.
Turning to AAATTACACTCCATAGAA, the remaining target (mRNA or protein) (fraction of control) is at least 1.
Consider AAGCACTTTAACATGACA, for which the remaining target (mRNA or protein) (fraction of control) was 0.85.
AAGTCAATACCCACAAGC returned a remaining target (mRNA or protein) (fraction of control) of at least 1.
The same measure, in the same setting: under AATCAACTCTACTAGCCT stands 0.53.
Take ACCTGGGAAAAGTCTTTG: the remaining target (mRNA or protein) (fraction of control) is at least 1.
In turn, ACTTTCTTCCTAACTTTG gave a remaining target (mRNA or protein) (fraction of control) of at least 1.
Turning to AGGTGGATGCACTTCTGA, the remaining target (mRNA or protein) (fraction of control) was at least 1.
On to AGTGAAAAGCACCAAAGA, for which the remaining target (mRNA or protein) (fraction of control) is at least 1.
Same read-out and setting: under ATAACAGACCAATTACTG stands at least 1; under ATAATTGGTGGGTCAGCA, at least 1.
The same measure, in the same setting: under ATATAGTTCACCAAACAT stands at least 1; under ATTCTTATCCACAAATAA, at least 1; under CAATCTGACAAGATCGTG, at least 1.
Same read-out and setting: the value for CATTTCTTCAGCTTGTTT was at least 1; that for CCAAGGTGGGAGATAATG was 0.97.
As to CCAGATTCTGAATAAAGC, the remaining target (mRNA or protein) (fraction of control) is at least 1.
Sequence CTAGTGTTATCAGAAACG yielded a remaining target (mRNA or protein) (fraction of control) of at least 1.
For the sequence CTCAGATTTGAAATGCTA, the remaining target (mRNA or protein) (fraction of control) is at least 1.
Same read-out and setting: the value for GACCACAAGGAATAAATA was at least 1.
Same read-out and setting: under GAGTAAGAACCACTGAAC stands at least 1; under GGTAACCTAAGTGCTATT, at least 1; under TACCTTGAATCTCATCAA, at least 1.
On the same count and under the same terms, the value for TAGAATTAAGAGGGTTTG was at least 1; that for TAGAGTTCACAGGAAAAG was at least 1; that for TATATGCAGGCTTCTTTC was 0.77.
TCAGGTAGGATGAGTATC yielded a remaining target (mRNA or protein) (fraction of control) of 0.89.
The same measure, in the same setting: under TCGCTTGTAAAGGTATCT stands at least 1.
Same read-out and setting: the value for TGCCTTTTATTTATATTT was at least 1; that for TGGTAGGTAAGAAATCTG was at least 1.
In turn, TTAAGGACTATTCAGCTA displayed a remaining target (mRNA or protein) (fraction of control) of at least 1.
TTAGATGGCTTCAAGTGT came in with a remaining target (mRNA or protein) (fraction of control) of 0.9.
Sequence TTAGTTAGCCATAAAATT came in with a remaining target (mRNA or protein) (fraction of control) of at least 1.
TTCCCAACACCTCAAGCC: the remaining target (mRNA or protein) (fraction of control) is 0.45.
As for TTCCCAGTTACTGAGCTT, the remaining target (mRNA or protein) (fraction of control) was 0.22.
The same measure, in the same setting: under TTCCTGGTTTCCAGTTCT stands 0.54.
In turn, TTGGCTTAAAGTTCAAAA had a remaining target (mRNA or protein) (fraction of control) of at least 1.
Same read-out and setting: the value for TTTCTCATTGGAGACGTA was 0.68.
On the same count and under the same terms, the value for TTTCTTCACATGAACTAA was at least 1.
On the same count and under the same terms, the value for TTTTACTTTGAACTGTTT was at least 1.

The next data set concerns the target RHOC. The note with it: ASO.
ACTCAAGGTAGCCAAAGG showed a remaining target (mRNA or protein) (fraction of control) of 0.67.
ACTCTGGGTCCCTACTGC returned a remaining target (mRNA or protein) (fraction of control) of 0.8.

The next data set concerns the target PTEN. The note with it: ASO.
Turning to TGTTCCTATAACTGGTAA, the remaining target (mRNA or protein) (fraction of control) came out at 0.42.
As to TGTTTCAAGCCCATTCTT, the remaining target (mRNA or protein) (fraction of control) stood at 0.35.
On the same count and under the same terms, the value for TTAAATTTGGCGGTGTCA was at least 1.

These data come from the OligoGym collection.
